Experimental data published in the supplement of paper PMC10307832.

What was measured:
Experiment in all cases: relative viability (nuclei count vs DMSO), 5 days (fraction); higher = more cells survive
[1] = compound: C1CN(CCN1)C2=CC=C(C=C2)C3=CN4C(=C(C=N4)C5=CC=NC6=CC=CC=C56)N=C3 [DM3189]
Summary of the method: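 Lung cancer cell lines in 1536-well plates were kept overnight at 37 °C, then pinned with five library-drug doses (not always all listed) spaced by √10 on vehicle-anchored plates. After 5 days without medium change, cells were fixed, permeabilised and Hoechst-stained in one step, imaged at 4×, and nuclei were counted with MetaXpress. Viability is treated-well nuclei divided by vehicle-well nuclei, taken as the median over plates. Plates passed only with control CV below 25% and at least one doubling.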

[2] = compound: C1CN(CCN1)C2=CC=C(C=C2)C3=CN4C(=C(C=N4)C5=CC=NC6=CC=CC=C56)N=C3 [DM3189] + N=C(N)NC(=N)NCCc1ccccc1 [Phenformin] (partner 250 µM)
Summary of the method: (§1)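 Relative viability equals treated-well nuclei counts divided by vehicle-well nuclei counts. Counts came from 4× images of lung cancer cell lines grown in 1536-well plates for 5 days after pin-tool dosing on the day after seeding. Dosing used one drug alone or a fixed anchor-drug dose plus five library-drug doses (not always all listed) in √10 steps, and values are medians of duplicate plates.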

[3] = compound: C1CN(CCN1)C2=CC=C(C=C2)C3=CN4C(=C(C=N4)C5=CC=NC6=CC=CC=C56)N=C3 [DM3189] + COc1cc2c(Oc3ccc(NC(=O)C4(C(=O)Nc5ccc(F)cc5)CC4)cc3F)ccnc2cc1OCCCN1CCOCC1 [Foretinib] (partner 0.25 µM)
Summary of the method: as §1

[4] = compound: C1CN(CCN1)C2=CC=C(C=C2)C3=CN4C(=C(C=N4)C5=CC=NC6=CC=CC=C56)N=C3 [DM3189] + Cc1nc(Nc2ncc(C(=O)Nc3c(C)cccc3Cl)s2)cc(N2CCN(CCO)CC2)n1 [Dasatinib] (partner 0.075 µM)
Summary of the method: as §1

[5] = compound: C1CN(CCN1)C2=CC=C(C=C2)C3=CN4C(=C(C=N4)C5=CC=NC6=CC=CC=C56)N=C3 [DM3189] + CCNC(=O)c1noc(-c2cc(C(C)C)c(O)cc2O)c1-c1ccc(CN2CCOCC2)cc1 [Luminespib] (partner 0.01 µM)
Summary of the method: as §1

[6] = compound: C1CN(CCN1)C2=CC=C(C=C2)C3=CN4C(=C(C=N4)C5=CC=NC6=CC=CC=C56)N=C3 [DM3189] + Cc1cc(Nc2cc(N3CCN(C)CC3)nc(Sc3ccc(NC(=O)C4CC4)cc3)n2)n[nH]1 [Tozasertib] (partner 0.1 µM)
Summary of the method: as §1

[7] = compound: C1CN(CCN1)C2=CC=C(C=C2)C3=CN4C(=C(C=N4)C5=CC=NC6=CC=CC=C56)N=C3 [DM3189] + COc1cccc2cc(-c3nc([C@H]4CC[C@H](C(=O)O)CC4)n4ncnc(N)c34)[nH]c12 [OSI-027] (partner 0.5 µM)
Summary of the method: as §1

[8] = compound: C1CN(CCN1)C2=CC=C(C=C2)C3=CN4C(=C(C=N4)C5=CC=NC6=CC=CC=C56)N=C3 [DM3189] + CS(=O)(=O)N1CCN(Cc2cc3nc(-c4cccc5[nH]ncc45)nc(N4CCOCC4)c3s2)CC1 [Pictilisib] (partner 1 µM)
Summary of the method: as §1

[9] = compound: C1CN(CCN1)C2=CC=C(C=C2)C3=CN4C(=C(C=N4)C5=CC=NC6=CC=CC=C56)N=C3 [DM3189] + CC1(C)CCC(c2ccc(Cl)cc2)=C(CN2CCN(c3ccc(C(=O)NS(=O)(=O)c4ccc(N[C@H](CCN5CCOCC5)CSc5ccccc5)c(S(=O)(=O)C(F)(F)F)c4)cc3)CC2)C1 [Navitoclax] (partner 0.5 µM)
Summary of the method: as §1

[10] = compound: C1CN(CCN1)C2=CC=C(C=C2)C3=CN4C(=C(C=N4)C5=CC=NC6=CC=CC=C56)N=C3 [DM3189] + O=C(c1cc(Cc2n[nH]c(=O)c3ccccc23)ccc1F)N1CCN(C(=O)C2CC2)CC1 [Olaparib] (partner 8 µM)
Summary of the method: as §1

[11] = compound: C1CN(CCN1)C2=CC=C(C=C2)C3=CN4C(=C(C=N4)C5=CC=NC6=CC=CC=C56)N=C3 [DM3189] + CS(=O)(=O)CCNCc1ccc(-c2ccc3ncnc(Nc4ccc(OCc5cccc(F)c5)c(Cl)c4)c3c2)o1 [Lapatinib] (partner 2 µM)
Summary of the method: as §1

[12] = compound: C1CN(CCN1)C2=CC=C(C=C2)C3=CN4C(=C(C=N4)C5=CC=NC6=CC=CC=C56)N=C3 [DM3189] + C[C@@H](Oc1cc(-c2cnn(C3CCNCC3)c2)cnc1N)c1c(Cl)ccc(F)c1Cl [Crizotinib] (partner 1 µM)
Summary of the method: as §1

[13] = compound: C1CN(CCN1)C2=CC=C(C=C2)C3=CN4C(=C(C=N4)C5=CC=NC6=CC=CC=C56)N=C3 [DM3189] + C[C@]1(O)C[C@@H](c2nc(-c3ccc4ccc(-c5ccccc5)nc4c3)c3c(N)nccn32)C1 [Linsitinib] (partner 1 µM)
Summary of the method: as §1

[14] = compound: C1CN(CCN1)C2=CC=C(C=C2)C3=CN4C(=C(C=N4)C5=CC=NC6=CC=CC=C56)N=C3 [DM3189] + Nc1ncn([C@H]2C[C@H](O)[C@@H](CO)O2)c(=O)n1 [Decitabine] (partner 2 µM)
Summary of the method: as §1

[15] = compound: C1CN(CCN1)C2=CC=C(C=C2)C3=CN4C(=C(C=N4)C5=CC=NC6=CC=CC=C56)N=C3 [DM3189] + Cc1nc(NC(=O)N2CCC[C@H]2C(N)=O)sc1-c1ccnc(C(C)(C)C(F)(F)F)c1 [Alpelisib] (partner 2 µM)
Summary of the method: as §1

## NCI-H1623
[1]; 0.08 µM
  relative viability: 1.05
[1]; 0.253 µM
  relative viability: 0.874
[1]; 0.8 µM
  relative viability: 0.92
[1]; 2.53 µM
  relative viability: 0.979
[2]; first compound 0.08 µM
  relative viability: 0.61
[2]; first compound 0.253 µM
  relative viability: 0.528
[2]; first compound 0.8 µM
  relative viability: 0.46
[2]; first compound 2.53 µM
  relative viability: 0.545
[3]; first compound 0.08 µM
  relative viability: 0.939
[3]; first compound 0.253 µM
  relative viability: 0.901
[3]; first compound 0.8 µM
  relative viability: 0.83
[3]; first compound 2.53 µM
  relative viability: 0.818
[4]; first compound 0.08 µM
  relative viability: 0.588
[4]; first compound 0.253 µM
  relative viability: 0.611
[4]; first compound 0.8 µM
  relative viability: 0.456
[4]; first compound 2.53 µM
  relative viability: 0.527
[5]; first compound 0.08 µM
  relative viability: 0.482
[5]; first compound 0.253 µM
  relative viability: 0.494
[5]; first compound 0.8 µM
  relative viability: 0.313
[5]; first compound 2.53 µM
  relative viability: 0.537
[6]; first compound 0.08 µM
  relative viability: 0.406
[6]; first compound 0.253 µM
  relative viability: 0.426
[6]; first compound 0.8 µM
  relative viability: 0.408
[6]; first compound 2.53 µM
  relative viability: 0.377
[7]; first compound 0.08 µM
  relative viability: 0.517
[7]; first compound 0.253 µM
  relative viability: 0.43
[7]; first compound 0.8 µM
  relative viability: 0.34
[7]; first compound 2.53 µM
  relative viability: 0.369

## A549
[1]; 0.08 µM
  relative viability: 1.06
[1]; 0.253 µM
  relative viability: 1.06
[1]; 0.8 µM
  relative viability: 0.993
[1]; 2.53 µM
  relative viability: 1.08
[8]; first compound 0.08 µM
  relative viability: 0.495
[8]; first compound 0.253 µM
  relative viability: 0.481
[8]; first compound 0.8 µM
  relative viability: 0.48
[8]; first compound 2.53 µM
  relative viability: 0.357
[9]; first compound 0.08 µM
  relative viability: 1.23
[9]; first compound 0.253 µM
  relative viability: 1.27
[9]; first compound 0.8 µM
  relative viability: 1.28
[9]; first compound 2.53 µM
  relative viability: 1.3
[2]; first compound 0.08 µM
  relative viability: 0.151
[2]; first compound 0.253 µM
  relative viability: 0.162
[2]; first compound 0.8 µM
  relative viability: 0.206
[2]; first compound 2.53 µM
  relative viability: 0.136
[3]; first compound 0.08 µM
  relative viability: 0.989
[3]; first compound 0.253 µM
  relative viability: 0.95
[3]; first compound 0.8 µM
  relative viability: 0.998
[3]; first compound 2.53 µM
  relative viability: 0.976
[10]; first compound 0.08 µM
  relative viability: 0.286
[10]; first compound 0.253 µM
  relative viability: 0.332
[10]; first compound 0.8 µM
  relative viability: 0.236
[10]; first compound 2.53 µM
  relative viability: 0.29
[11]; first compound 0.08 µM
  relative viability: 0.916
[11]; first compound 0.253 µM
  relative viability: 1.01
[11]; first compound 0.8 µM
  relative viability: 1.01
[11]; first compound 2.53 µM
  relative viability: 1
[12]; first compound 0.08 µM
  relative viability: 0.86
[12]; first compound 0.253 µM
  relative viability: 0.763
[12]; first compound 0.8 µM
  relative viability: 0.755
[12]; first compound 2.53 µM
  relative viability: 0.705
[13]; first compound 0.08 µM
  relative viability: 0.654
[13]; first compound 0.253 µM
  relative viability: 0.593
[13]; first compound 0.8 µM
  relative viability: 0.549
[13]; first compound 2.53 µM
  relative viability: 0.545
[14]; first compound 0.08 µM
  relative viability: 0.26
[14]; first compound 0.253 µM
  relative viability: 0.282
[14]; first compound 0.8 µM
  relative viability: 0.251
[14]; first compound 2.53 µM
  relative viability: 0.325
[15]; first compound 0.08 µM
  relative viability: 0.892
[15]; first compound 0.253 µM
  relative viability: 0.806
[15]; first compound 0.8 µM
  relative viability: 0.812
[15]; first compound 2.53 µM
  relative viability: 0.956
